What all share (test): relative viability (nuclei count vs DMSO), 5 days (fraction); higher = more cells survive
Compound in the test “VE-821 + Luminespib”: CS(=O)(=O)c1ccc(-c2cnc(N)c(C(=O)Nc3ccccc3)n2)cc1 [VE-821] + CCNC(=O)c1noc(-c2cc(C(C)C)c(O)cc2O)c1-c1ccc(CN2CCOCC2)cc1 [Luminespib] (partner 0.01 µM)
In short, it runs like this:
(§1)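 One day after seeding in 1536-well plates, lung cancer cell lines were dosed by pin tool. Dosing was either single-drug or a fixed anchor-drug dose plus five library-drug doses (not always all listed) in √10 steps. After 5 days, nuclei were stained in one fix-and-stain step and counted on 4× images, and relative viability is the nuclei count of treated wells over that of vehicle wells, given as the median of duplicate plates.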

Compound in the test “Ruxolitinib + Linsitinib”: N#CC[C@H](C1CCCC1)n1cc(-c2ncnc3[nH]ccc23)cn1 [Ruxolitinib] + C[C@]1(O)C[C@@H](c2nc(-c3ccc4ccc(-c5ccccc5)nc4c3)c3c(N)nccn32)C1 [Linsitinib] (partner 1 µM)
An outline of the steps:
as §1

Compound in the test “VE-821 + Bortezomib”: CS(=O)(=O)c1ccc(-c2cnc(N)c(C(=O)Nc3ccccc3)n2)cc1 [VE-821] + CC(C)C[C@H](NC(=O)[C@H](Cc1ccccc1)NC(=O)c1cnccn1)B(O)O [Bortezomib] (partner 0.002 µM)
In short, it runs like this:
as §1

Compound in the test “Ruxolitinib + Dasatinib”: N#CC[C@H](C1CCCC1)n1cc(-c2ncnc3[nH]ccc23)cn1 [Ruxolitinib] + Cc1nc(Nc2ncc(C(=O)Nc3c(C)cccc3Cl)s2)cc(N2CCN(CCO)CC2)n1 [Dasatinib] (partner 0.075 µM)
In short, it runs like this: as §1

With UMC-11, the relative viability is 1.18 in the test with VE-821 + Luminespib (first compound 0.08 µM); 0.966 with VE-821 + Luminespib (first compound 0.253 µM); 0.966 in the test with VE-821 + Luminespib (first compound 0.8 µM); 1.03 with VE-821 + Luminespib (first compound 2.53 µM); 0.493 with VE-821 + Luminespib (first compound 8 µM); 1.03 with Ruxolitinib + Linsitinib (first compound 0.08 µM). Besides, the relative viability in the test with Ruxolitinib + Linsitinib (first compound 0.253 µM) stood at 1.08; with Ruxolitinib + Linsitinib (first compound 0.8 µM), 1.08; with Ruxolitinib + Linsitinib (first compound 2.53 µM) it was 1.11; in the test with Ruxolitinib + Linsitinib (first compound 8 µM), 0.96; with VE-821 + Bortezomib (first compound 0.08 µM), 0.873; with VE-821 + Bortezomib (first compound 0.253 µM), 0.707. Also, the relative viability turned out to be 0.794 with VE-821 + Bortezomib (first compound 0.8 µM); 0.789 with VE-821 + Bortezomib (first compound 2.53 µM); 0.641 with VE-821 + Bortezomib (first compound 8 µM); 0.437 in the test with Ruxolitinib + Dasatinib (first compound 0.08 µM); 0.492 with Ruxolitinib + Dasatinib (first compound 0.253 µM); 0.524 in the test with Ruxolitinib + Dasatinib (first compound 0.8 µM). The relative viability in the test with Ruxolitinib + Dasatinib (first compound 2.53 µM) is 0.508; with Ruxolitinib + Dasatinib (first compound 8 µM), 0.512.

Source of the values: the supplement of paper PMC10307832.
